Target: IRE1α (Homo sapiens (Human), UniProt O75460, D688N)
Assay: IRE1α TR-FRET competition binding assay (IRE1α HTRF)
Conditions: TR-FRET competition binding to kinase domain of IRE1α
In short: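 Kinase domain (0.25 nM) pre-bound to 2 nM Eu anti-His antibody for 1 h at 4° C in HEPES pH 7.5/MgCl2/Brij 35/DTT/gamma globulin buffer, then mixed with compounds and 2 nM Alexa 647 ATP-competitive probe. 1 h at room temperature; probe displacement read as TR-FRET (Ex 347 nm, Em 665/615 nm).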

IRE1α, sequence (O75460 547-977 D688N): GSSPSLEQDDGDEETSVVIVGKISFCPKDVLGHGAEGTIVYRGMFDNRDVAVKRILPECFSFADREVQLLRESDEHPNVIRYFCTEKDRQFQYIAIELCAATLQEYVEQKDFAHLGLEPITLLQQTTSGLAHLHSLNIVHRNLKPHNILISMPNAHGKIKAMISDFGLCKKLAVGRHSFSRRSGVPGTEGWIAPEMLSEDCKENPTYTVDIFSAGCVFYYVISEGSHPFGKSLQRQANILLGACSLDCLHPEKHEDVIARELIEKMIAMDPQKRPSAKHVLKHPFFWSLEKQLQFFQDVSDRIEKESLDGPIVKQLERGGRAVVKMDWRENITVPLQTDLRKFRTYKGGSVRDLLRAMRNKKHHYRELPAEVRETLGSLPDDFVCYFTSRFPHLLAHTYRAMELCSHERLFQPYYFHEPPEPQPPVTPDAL

**Q.** For CC(C)n1c(=O)c(-c2ccc(NS(=O)(=O)CCC(F)(F)F)c(F)c2)cc2cnc(N[C@H]3CC[C@H](N(C)CCF)CC3)nc21 [Compound 157, 3,3,3-trifluoro-N-(2-Fluoro-4-(2-(((1r,4r)-4-((2-fluoroethyl)(methyl)amino)cyclohexyl)amino)-8-isopropyl-7-oxo-7,8-dihydropyrido[2,3-d]pyrimidin-6-yl)phenyl)propane-1-sulfonamide], which IC50 is on record?
**A.** Its IC50 is 0.14 nM.
